Drawing on PubChem BioAssay (NCI), this text covers TGI for 18 molecules.

Common to all, as to assay: inhibition of tumour cell growth, NCI panel, 48 h
Test [1] relates to A498 renal.
The subject of test [2] is BT-549 breast.
Test [3] relates to CCRF-CEM leukemia.
Test [4] has as its system DU-145 prostate.
Test [5] relates to HCC-2998 colon.
The test system of test [6] is HL-60(TB) leukemia.
The test system of test [7] is HT29 colon.
For test [8], the system named is KM12 colon.
The test system of test [9] is M14 melanoma.
The subject of test [10] is MDA-N.
For test [11], the system named is NCI-H522 lung.
Test [12] relates to OVCAR-4 ovarian.
Test [13] has as its system PC-3 prostate.
For test [14], the system named is SK-MEL-28 melanoma.
The subject of test [15] is SNB-19 CNS.
Test [16] has as its system SR leukemia.

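Exposure lasted 48 hours, with cells grown in 96-well plates and compounds tested at five concentrations. TGI: total growth inhibition.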 Some results are limits rather than exact numbers.

`Cc1cc2nc3n[nH]c(N)c3nc2cc1C`: the TGI in test [1], in [2], in [3], in test [4], in test [5] and in [6] was more than 100 µM in each case. For the same molecule, the TGI in [7], in test [8], in test [9], in test [10], in test [11] and in [12] was more than 100 µM each time. In addition, the TGI in test [13], in test [14], in test [15] and in [16] was more than 100 µM throughout.

With `CCOP(=O)(OCC)C(NC(=O)OCC(Cl)(Cl)Cl)n1nnc(C(=O)OC)c1C(=O)OC` (stereo unspecified), the TGI in test [1], in [2], in [3], in [4], in [5] and in test [6] was more than 100 µM each time. Moreover, the TGI in test [7], in test [8], in test [9], in test [10], in [11] and in test [12] was more than 100 µM throughout. Also, the TGI in test [13], in [14], in [15] and in [16] was more than 100 µM in each case.

As to `OC1(c2ccccc2)CC2CCC(C1)N2CCc1ccccc1` (stereo unspecified), the TGI in [1] is 56.4 µM; in test [2], more than 100 µM; in test [3], more than 100 µM; in [4] it was more than 100 µM; in test [5], more than 100 µM; in test [6], more than 100 µM. Also, the TGI in test [7] was 79.3 µM; in test [8], more than 100 µM; in test [9], more than 100 µM; in [10] it was more than 100 µM; in test [12] it was more than 100 µM; in test [13], more than 100 µM. The TGI in test [14], in test [15] and in [16] was more than 100 µM in each case.

As for `CCOC(=O)c1nc2cc(N3CCOCC3)c(F)cc2[nH]c1=O`, the TGI in test [1], in test [2], in test [3], in test [4], in [5] and in test [6] was more than 100 µM throughout. Moreover, the TGI in test [7], in [8], in test [9], in [10], in test [11] and in test [12] was more than 100 µM throughout. For the same molecule, the TGI in test [13], in test [14], in test [15] and in test [16] was more than 100 µM throughout.

For `CCOC(=O)CN1CCNCCN(CC(=O)OCC)CCNCC1`, the TGI in test [1], in [2], in test [3], in test [4], in test [5] and in test [6] was more than 100 µM throughout. Moreover, the TGI in test [7], in test [8], in test [10], in test [11], in test [12] and in test [13] was more than 100 µM each time. Further, the TGI in test [14], in test [15] and in test [16] was more than 100 µM in each case.

As to `COc1ccc2[nH]c(CCNC(=O)c3cc([N+](=O)[O-])cc([N+](=O)[O-])c3)cc2c1`, the TGI in test [1], in test [2], in test [3], in test [4], in test [6] and in [7] was more than 100 µM in each case. Besides, the TGI in [8], in test [9], in [10], in test [12], in [13] and in [14] was more than 100 µM each time. Moreover, the TGI in test [15] and in test [16] was more than 100 µM in each case.

Take `CCN(CC)CCn1c(C(C)(C)C)nc2ccccc21`: the TGI in test [2], in test [3], in test [4], in [5], in [6] and in [7] was more than 100 µM throughout. Besides, the TGI in [8], in test [9], in test [10], in test [11], in test [12] and in test [13] was more than 100 µM each time. Further, the TGI in test [14], in test [15] and in test [16] was more than 100 µM throughout.

Turning to `COC(=O)c1ccccc1C1CN=NC12Cc1ccc3ccccc3c1C2=O` (stereo unspecified), the TGI in test [1], in test [2], in test [3], in test [4], in test [5] and in test [6] was more than 100 µM in each case. The TGI in test [8], in test [9], in [10], in test [11], in test [12] and in test [13] was more than 100 µM each time. Further, the TGI in [14], in test [15] and in test [16] was more than 100 µM in each case.

Take `COc1cc(NS(C)(=O)=O)ccc1NCc1cnc2ccc3[nH]c(C)ccc3c12`: the TGI was 42 µM in [1]; more than 100 µM in test [2]; 67.2 µM in [3]; 89.1 µM in test [4]; 34.9 µM in test [6]; more than 100 µM in test [7]. For the same molecule, the TGI in [8], in [9], in test [10], in [11], in test [12] and in test [13] was more than 100 µM each time. Besides, the TGI in test [14] was more than 100 µM; in [15], more than 100 µM; in test [16], 33.5 µM.

Take `O=c1[nH]c2ccc(C(F)(F)F)cc2nc1-c1ccccc1`: the TGI in test [1], in test [2], in test [3], in test [4], in [5] and in [6] was more than 100 µM throughout. Further, the TGI in test [7], in [9], in test [10], in [11], in test [13] and in test [14] was more than 100 µM in each case. Also, the TGI in test [15] and in test [16] was more than 100 µM each time.

As to `C[C@]12CC[C@@H]3c4ccc(O)cc4CC[C@H]3[C@@H]1C/C(=C\c1ccc([N+](=O)[O-])cc1)C2=O`, the TGI in test [1] was more than 100 µM; in test [2], more than 100 µM; in test [3], more than 100 µM; in test [4], more than 100 µM; in test [5], more than 100 µM; in test [7], 37.2 µM. Further, the TGI was more than 100 µM in [8]; more than 100 µM in test [9]; more than 100 µM in test [10]; 65.4 µM in test [11]; more than 100 µM in [12]; more than 100 µM in [13]. In addition, the TGI in test [14], in test [15] and in [16] was more than 100 µM each time.

With `c1ccc(N=C2c3ccccc3CN2c2ccccc2)cc1`, the TGI in test [2], in [3], in [4], in test [5], in test [6] and in [7] was more than 100 µM throughout. The TGI in test [8], in test [9], in [10], in [11], in [12] and in test [13] was more than 100 µM each time. Besides, the TGI in [14], in test [15] and in [16] was more than 100 µM each time.

For the molecule `Clc1ccc(-c2nn3c(CCCCCCCCc4nnc5sc(-c6ccc(Cl)cc6)nn45)nnc3s2)cc1`, the TGI in test [1] is more than 85.9 µM; in test [2], more than 79.5 µM; in test [3], 60.3 µM; in test [4], more than 61.4 µM; in [5], more than 100 µM; in [7], 30.6 µM. The TGI was 61.3 µM in test [8]; 67.5 µM in test [9]; more than 94.7 µM in [10]; 28.8 µM in test [11]; more than 64.6 µM in test [12]; 69.7 µM in test [13]. In addition, the figures for the TGI in [14], in test [15] and in [16] were more than 79.7 µM, more than 87.6 µM and more than 74.3 µM, respectively.

With `CN1C2CCC1CC(OC(c1ccccc1)c1ccccc1)C2` (stereo unspecified), the TGI in [1] was 28.4 µM; in test [2], 41.2 µM; in [3] it was 29.9 µM; in test [4] it was more than 100 µM; in [6] it was 36.2 µM; in test [7], 23 µM. Also, the TGI in test [8] was 37.9 µM; in [9] it was 27.9 µM; in test [10], 28.8 µM; in test [11], 28.1 µM; in test [12], more than 100 µM; in test [13] it was 37.3 µM. Further, the values for the TGI in [14], in test [15] and in [16] were 27.8 µM, 48.3 µM and 42 µM, respectively.

On to `CC1=C(/C=C/C(C)=C/C=C/C(C)=C/C(=O)OCC2OC(n3cc(F)c(=O)[nH]c3=O)CC2OC(=O)/C=C(C)/C=C/C=C(C)/C=C/C2=C(C)CCCC2(C)C)C(C)(C)CCC1` (stereo unspecified), for which the TGI in [2] was more than 76.3 µM; in [3] it was more than 28.8 µM; in test [4], more than 46.3 µM; in test [5], 15 µM; in test [6] it was more than 41.9 µM; in test [7], more than 100 µM. Besides, the TGI was more than 74.7 µM in test [8]; more than 48.3 µM in test [9]; more than 48.4 µM in test [10]; 28.2 µM in [11]; more than 81.8 µM in test [12]; more than 56.2 µM in test [13]. The TGI in test [14] is more than 77.6 µM; in test [15], more than 100 µM; in [16], more than 59.6 µM.

Regarding `CC(C)(C)OC(=O)[N+](=N)C(=O)C1CCC(=O)N1C(=O)OCc1ccccc1` (stereo unspecified), the TGI in test [2], in test [3], in test [4], in test [5], in test [6] and in test [7] was more than 100 µM each time. Moreover, the TGI in [8], in test [9], in [10], in [11], in test [12] and in test [13] was more than 100 µM each time. Moreover, the TGI in test [14], in test [15] and in test [16] was more than 100 µM in each case.

Regarding `O=c1c2ccccc2nc2n1NC(c1c(Cl)cccc1Cl)N2c1cccc(Cl)c1` (stereo unspecified), the TGI in test [2], in test [3], in test [4], in [5], in [6] and in test [7] was more than 100 µM each time. Also, the TGI in [8] was more than 100 µM; in test [9], 66.6 µM; in test [10], more than 100 µM; in [11] it was 28.8 µM; in test [12] it was 6.73 µM; in test [13], 28.1 µM. Further, the results for the TGI in test [14], in test [15] and in [16] were more than 100 µM, 18 µM and more than 100 µM, respectively.

As for `CNC(=S)/C(=N\Nc1nc[nH]c1C(N)=O)C(N)=S`, the TGI in test [1] was more than 75.6 µM; in [2] it was more than 100 µM; in test [4], 34.9 µM; in test [5], 22.8 µM; in test [6], 7.83 µM; in test [7], more than 100 µM. For the same molecule, the TGI in [8] was 24.4 µM; in [9] it was more than 100 µM; in test [10], more than 63 µM; in [11], more than 91.7 µM; in test [12] it was more than 100 µM; in test [13] it was more than 100 µM. Also, the values for the TGI in test [14], in [15] and in [16] were more than 100 µM, more than 100 µM and 0.468 µM, respectively.
